Data published in paper PMC3755010 (Bioorganic & medicinal chemistry letters, 2012).
Each block holds one molecule with its values, some of them ahead of it.

Experiments:
rat mGlu5 receptor = rat mGlu5 receptor (Rattus norvegicus, UniProt P31424); experiment: Calcium mobilization assay in HEK293 cells expressing the rat mGlu5 receptor; assay type: cell-based; settings: for loss in functional activity versus 6: relative to 6 (VU0357121); for improvement in potency versus 8b: relative to 8b; for EC50 (nM): calcium mobilization, HEK293 cells expressing rat mGlu5
[1] = In vitro oxidative metabolism; assay type: in vitro ADME, rat
[2] = target: T1, mGlu5 MPEP allosteric binding site (Rattus norvegicus, UniProt P31424); experiment: [3H]methoxyPEPy binding
[3] = Non-crossover in vivo pharmacokinetic studies in rats; parameters: species or system rat
[4] = system: mGlu5 MPEP site sensitive mutants (P654F, T780A, A809V); experiment: Fold-shift of glutamate CRC at MPEP site sensitive point mutants; assay type: cell-based; settings: 1 μM compound, compared to wild-type rat mGlu5
[5] = target: wild-type rat mGlu5 receptor (Rattus norvegicus, UniProt P31424); experiment: Fold-shift of glutamate concentration-response curve at wild-type receptor; assay type: cell-based; settings: 1 μM compound
human mGlu5 receptor = human mGlu5 receptor (Homo sapiens, UniProt P41594); experiment: Functional assay in lower expressing human mGlu5 receptor cell line; assay type: cell-based
[6] = Reversal of amphetamine-induced hyperlocomotion in rats; assay type: in vivo, rat; settings: rat, brain (unbound), po, 100 mg/kg
[7] = system: amphetamine-induced hyperlocomotion; experiment: as above; assay type: in vivo, rat; settings: rats, 100 mg/kg p.o., vehicle 20% β-CD
[8] = target: T1, mGlu5 MPEP allosteric binding site; settings: cited from earlier work

T1 sequence (P31424 21-1203): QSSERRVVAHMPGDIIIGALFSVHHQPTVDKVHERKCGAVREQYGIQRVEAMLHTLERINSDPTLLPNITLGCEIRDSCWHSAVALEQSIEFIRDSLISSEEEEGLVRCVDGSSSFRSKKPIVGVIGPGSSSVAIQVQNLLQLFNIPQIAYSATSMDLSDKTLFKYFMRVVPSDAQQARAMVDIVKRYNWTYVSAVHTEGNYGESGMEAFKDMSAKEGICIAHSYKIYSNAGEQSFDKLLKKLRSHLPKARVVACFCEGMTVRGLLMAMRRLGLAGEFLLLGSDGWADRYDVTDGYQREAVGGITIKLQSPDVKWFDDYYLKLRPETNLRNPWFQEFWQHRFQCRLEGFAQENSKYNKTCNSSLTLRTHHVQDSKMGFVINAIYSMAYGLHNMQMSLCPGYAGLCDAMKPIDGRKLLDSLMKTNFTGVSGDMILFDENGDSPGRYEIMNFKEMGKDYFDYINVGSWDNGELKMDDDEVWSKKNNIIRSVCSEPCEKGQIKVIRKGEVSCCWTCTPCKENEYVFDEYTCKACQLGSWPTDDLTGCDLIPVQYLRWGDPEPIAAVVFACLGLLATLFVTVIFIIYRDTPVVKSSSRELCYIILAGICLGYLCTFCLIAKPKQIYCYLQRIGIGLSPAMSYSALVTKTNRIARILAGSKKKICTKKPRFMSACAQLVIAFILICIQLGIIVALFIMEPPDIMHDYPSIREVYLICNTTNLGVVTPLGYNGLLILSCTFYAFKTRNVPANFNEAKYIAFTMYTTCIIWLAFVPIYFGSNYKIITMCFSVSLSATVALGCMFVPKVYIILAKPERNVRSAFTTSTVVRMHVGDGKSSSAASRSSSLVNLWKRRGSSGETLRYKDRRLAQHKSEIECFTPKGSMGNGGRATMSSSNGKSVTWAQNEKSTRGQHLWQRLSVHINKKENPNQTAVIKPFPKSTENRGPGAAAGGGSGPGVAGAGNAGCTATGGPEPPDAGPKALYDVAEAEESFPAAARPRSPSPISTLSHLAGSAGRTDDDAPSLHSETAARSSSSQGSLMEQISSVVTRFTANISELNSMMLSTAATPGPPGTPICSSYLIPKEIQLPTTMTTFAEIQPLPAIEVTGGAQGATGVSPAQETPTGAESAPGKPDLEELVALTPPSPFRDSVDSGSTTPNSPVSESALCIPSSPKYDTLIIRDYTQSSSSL
rat mGlu5 receptor, sequence (P31424 21-1203): as above
human mGlu5 receptor, sequence (P41594 21-1212): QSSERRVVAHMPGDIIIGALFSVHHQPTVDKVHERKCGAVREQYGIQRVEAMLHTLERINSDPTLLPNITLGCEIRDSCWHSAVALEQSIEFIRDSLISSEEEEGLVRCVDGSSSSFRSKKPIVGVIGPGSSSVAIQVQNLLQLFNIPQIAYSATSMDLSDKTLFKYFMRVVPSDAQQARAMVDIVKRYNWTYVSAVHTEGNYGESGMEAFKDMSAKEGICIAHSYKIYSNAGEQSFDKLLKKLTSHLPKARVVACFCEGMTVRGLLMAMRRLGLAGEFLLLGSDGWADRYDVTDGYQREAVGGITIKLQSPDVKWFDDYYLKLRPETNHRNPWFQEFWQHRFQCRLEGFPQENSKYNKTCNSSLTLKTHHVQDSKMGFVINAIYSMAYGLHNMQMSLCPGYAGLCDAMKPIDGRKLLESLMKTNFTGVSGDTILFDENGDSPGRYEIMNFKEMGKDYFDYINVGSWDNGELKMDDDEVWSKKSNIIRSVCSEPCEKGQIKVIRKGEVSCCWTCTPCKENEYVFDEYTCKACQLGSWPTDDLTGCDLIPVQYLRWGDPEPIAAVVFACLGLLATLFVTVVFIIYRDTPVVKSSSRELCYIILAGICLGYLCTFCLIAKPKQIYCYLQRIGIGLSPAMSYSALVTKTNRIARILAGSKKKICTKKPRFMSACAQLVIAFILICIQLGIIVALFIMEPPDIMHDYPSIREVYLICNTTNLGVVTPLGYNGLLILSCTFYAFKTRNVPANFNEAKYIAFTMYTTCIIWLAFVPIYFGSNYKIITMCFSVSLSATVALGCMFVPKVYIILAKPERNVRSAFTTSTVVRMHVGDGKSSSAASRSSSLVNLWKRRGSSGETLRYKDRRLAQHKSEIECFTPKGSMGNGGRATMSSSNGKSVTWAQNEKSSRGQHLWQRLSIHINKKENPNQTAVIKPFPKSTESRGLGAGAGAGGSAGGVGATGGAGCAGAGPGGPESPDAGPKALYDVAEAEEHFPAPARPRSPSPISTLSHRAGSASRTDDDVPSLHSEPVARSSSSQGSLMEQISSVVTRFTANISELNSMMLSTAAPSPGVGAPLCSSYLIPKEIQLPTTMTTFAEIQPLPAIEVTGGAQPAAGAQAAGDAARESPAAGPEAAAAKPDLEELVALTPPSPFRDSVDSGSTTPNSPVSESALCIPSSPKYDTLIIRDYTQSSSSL
wild-type rat mGlu5 receptor, sequence (P31424 21-1203): as the sequence (P31424 21-1203) above

- loss in functional activity versus 6 (rat mGlu5 receptor): > 15 fold
Structure (SMILES): CCCCOc1ccc(C(=O)NC2CCCCC2)cc1 [7a]

- loss in functional activity versus 6 (rat mGlu5 receptor): > 15 fold
Structure (SMILES): CCCCOc1ccc(C(=O)NC2CCC2)cc1 [7c]

- loss in functional activity versus 6 (rat mGlu5 receptor): 22 fold
Structure (SMILES): CCCCOc1ccc(C(=O)Nc2ccc(F)cc2F)cn1 [8a]

- improvement in potency versus 8b (rat mGlu5 receptor): fivefold
Structure (SMILES): CCCCCOc1ccc(C(=O)NC2CCCCC2)cn1 [8d]

- EC50 (nM) (rat mGlu5 receptor): complete loss of potentiation
Structure (SMILES): CCCOc1ccc(C(=O)NC2CCCCC2)cn1 [8e]

- EC50 (nM) (rat mGlu5 receptor): unproductive
Structure (SMILES): CCCC(C)Oc1ccc(C(=O)NC2CCCCC2)cn1 (stereo not shown) [8f]

- improvement in potency versus 8b (rat mGlu5 receptor): twofold
Structure (SMILES): CCC(C)COc1ccc(C(=O)NC2CCCCC2)cn1 (stereo not shown) [8g]

- oxidative metabolism in rat microsomal incubations ([1]; soft-spot analysis, rat microsomes): extensive oxidative metabolism
- estimated divergence of MPEP site interaction from functional activity ([2]; 21% displacement at 10 μM versus functional EC50): > 100 fold
Structure (SMILES): O=C(NC1CCCCC1)c1ccc(OCc2ccccc2)nc1 [8k]

- loss in activity relative to 8k (rat mGlu5 receptor; relative to 8k): sevenfold
Structure (SMILES): O=C(NC1CCCCC1)c1ccc(OCc2ccc(F)cc2)nc1 [8m]

- metabolic stability in vitro ([1]; data not shown): relatively stable metabolically in vitro
Structure (SMILES): O=C(N[C@@H](C1CC1)C(F)(F)F)c1ccc(OCc2cccc(F)c2)nc1 [8u]

Structure (SMILES): C[C@@H](NC(=O)c1ccc(OCc2cccc(F)c2)nc1)C(C)(C)C [8v]
- clearance ([3]; rat, plasma, iv, 1 mg/kg): 13.7 mL/min/kg
- first-pass effect (Ehep) ([3]; rats, snapshot oral PK, portal vein vs plasma): 0.41
- effect of MPEP-site point mutations on shift of the glutamate CRC [4]: reduced the ability
- displacement of the MPEP-site radioligand [3H]-methoxyPEPy (extent) [2]: full displacement
- increase in activity over cyclohexyl analog R-8t (rat mGlu5 receptor; high expressing rat receptor HEK cell line): twofold
- shift of the glutamate CRC [5]: fivefold
- agonism activity for compound alone (human mGlu5 receptor): no detected agonism activity
- concentration at 90 min [6]: ~74 nM
- reversal of amphetamine-induced hyperlocomotion [7]: robust effects in reversal of hyperlocomotion

- EC50 relative to 8v (rat mGlu5 receptor; direct comparator to 8v): ~ 2.5 fold
Structure (SMILES): C[C@@H](NC(=O)c1ccc(OCc2cccc(F)c2)cc1)C(C)(C)C [8w]

Structure (SMILES): CCCCOc1ccc(C(=O)Nc2ccc(F)cc2F)cc1 [compound 6]
- displacement of the MPEP-site ligand [3H]methoxyPEPy [8]: not observed to displace
